Measurements published in US20160175249A1, “Liposomes Containing Oligopeptide Fragments of Myelin Basic Protein, a Pharmaceutical Composition and a Method for Treatment of Multiple Sclerosis” (LIPOXEN TECHNOLOGIES LIMITED, priority 2009, published 2016).

How the values were obtained:
[1] = tested on: experimental allergic encephalomyelitis (EAE) in DA rats; experiment: Treatment of EAE in DA rats with liposomally encapsulated MBP peptides (Example 5); format: in vivo; settings: 150 μg per animal daily subdermally days 6-11, score 0-5
Experimental: To induce experimental allergic encephalomyelitis (EAE) in DA rats having a mass of 220-250 g ([…]), 10 μg of myelin basic protein encephalogenic peptide fragment ARTTHYGSLPQKSQRSQ (SEQ ID NO:4; Anaspec, US) emulsified in Freund's complete adjuvant (Difco, US) at a concentration of 10% (m/v) was subdermally injected into the forepaw. The rats were weighted and monitored for EAE neurological symptoms daily. The EAE symptom profile of each rate was scored according to the following scale: (0)—absence of EAE symptoms; (1)—decrease in tail tonicity; (2)—decrease in righting reflex; (3)—paresis; (4)—full paralysis; and (5)—agony or death. Intermediary symptoms were scored by increasing or decreasing the value by 0.5 units. Six days after EAE induction, animals were randomly distributed into several groups (12 animals each).
Between days six and eleven after induction, rats in each respective group were subdermally injected with the liposomal preparation described in Example 2 (emulsified in phosphate saline solution, pH 7.4), a positive control preparation of glatiramer acetate (GA; copaxone, Teva Pharmaceutical Industries Ltd, Israel), a prototype peptide: DENPVVIIFFKNIVTPRT (SEQ ID NO:5), or a buffered phosphate saline solution (pH 7.4) placebo. The peptide, Glatiramer acetate, and liposomal preparations were formulated immediately prior to administration using buffered phosphate saline solution (pH 7.4). 0.1 mL of each composition was administered daily at a concentration of 150 μg per animal.

[2] = tested on: anti-MBP autoantibody; experiment: Serum anti-MBP autoantibody titer in EAE DA rats (Example 11); format: in vivo; settings: EAE DA rats treated as in Example 10
Experimental: To determine anti-MBP autoantibody binding patters in sera from the EAE-induced rodent models and human MS patients, ELISA experiments were performed as follows. Microtiter plates (MaxiSorp-Nunc) were coated with 50 μl of a 10 μg/ml MBP solution or recombinant MBP peptides in 100 mM carbonate/bicarbonate buffer pH 9.0, in odd column wells. Plates were sealed with ELISA plate sealer (Costar) and incubated at 4° C. overnight and then washed (300 μl/well) three times with phosphate-buffered saline (PBS) containing 0.15% Tween-20. All the wells were then blocked with 250 μl 2% bovine serum albumin (BSA) (Sigma) in carbonate/bicarbonate buffer pH 9.0 and incubated for 1 hr at 37° C. The plates were washed with PBS containing 0.15% Tween-20. Serum antibodies were diluted in PBS containing 0.15% Tween-20 and 0.5% BSA at the final dilution of 1:1000-1:50000, and 50 μl of the diluted sample was added to each well of the plate. Rat anti-MBP monoclonal antibody (ab7349, Abcam) was used as control. […] The OD450 values were measured using a microplate reader Varioscan (Thermo, USA).
To investigate the immunological status of EAE induced DA rats after treatment with liposomally encapsulated MBP peptides, serum isolated from rats treated as described in Example 10 was analyzed for anti-MBP antibodies and CNS cytokine staining (FIG. 5). […]

With glatiramer acetate [copaxone] the “Evaluation of EAE symptom intensity, average” value (shortened to “Evaluation”) ([1]; day 0 after EAE induction) was 0.00, the “Evaluation” value ([1]; day 1 after EAE induction) was 0.00 and the “Evaluation” value ([1]; day 2 after EAE induction) was 0.00. The “Evaluation” value ([1]; day 3 after EAE induction) was 0.00, the “Evaluation” value ([1]; day 4 after EAE induction) was 0.00 and the “Evaluation” value ([1]; day 5 after EAE induction) was 0.00. For the same substance, the “Evaluation” value ([1]; day 6 after EAE induction) was 0.00, the “Evaluation” value ([1]; day 7 after EAE induction) was 0.00 and the “Evaluation” value ([1]; day 8 after EAE induction) was 0.50. For the same substance, the “Evaluation” value ([1]; day 9 after EAE induction) was 1.67, the “Evaluation” value ([1]; day 10 after EAE induction) was 2.17 and the “Evaluation” value ([1]; day 11 after EAE induction) was 2.25. For the same substance, the “Evaluation” value ([1]; day 12 after EAE induction) was 2.25, the “Evaluation” value ([1]; day 13 after EAE induction) was 2.83 and the “Evaluation” value ([1]; day 14 after EAE induction) was 2.75. The “Evaluation” value ([1]; day 15 after EAE induction) was 2.33, the “Evaluation” value ([1]; day 16 after EAE induction) was 2.08 and the “Evaluation” value ([1]; day 17 after EAE induction) was 2.17. The “Evaluation” value ([1]; day 18 after EAE induction) was 2.17, the “Evaluation” value ([1]; day 19 after EAE induction) was 1.75 and the “Evaluation” value ([1]; day 20 after EAE induction) was 1.67. The “Evaluation” value ([1]; day −1 after EAE induction) was 0.00 and the “Serum anti-MBP Antibody titer” value [2] was 1.0 ± 0.1.
